Experimental data as given in patent US10058534B2, “Benzothiophene derivatives and compositions thereof as selective estrogen receptor degraders” (NOVARTIS AG, priority 2013, dated 2018).

Biological target: ERα (Homo sapiens (Human), UniProt P03372)
Experiment: ERα degradation (MCF7 cells), in-cell Western
Type: cell-based
Conditions: MCF7 cells; for % ERα remaining: remaining ERα protein at 10 μM ligand, relative to DMSO control
Protocol: ERα Degradation (MCF7 Cells)
The column titled MCF7 IC50 reports the inflection point of the inhibition of transcription in MCF7 cells as described above. Percentage ERα remaining reports the remaining ERα protein measured at 10 μM concentration of the ligand as described above. The column ERα IC50 reports the inflection point of the degradation in response to the ligand concentration.

[1] = inflection point of the degradation in response to ligand concentration

ERα, sequence (P03372 whole entry): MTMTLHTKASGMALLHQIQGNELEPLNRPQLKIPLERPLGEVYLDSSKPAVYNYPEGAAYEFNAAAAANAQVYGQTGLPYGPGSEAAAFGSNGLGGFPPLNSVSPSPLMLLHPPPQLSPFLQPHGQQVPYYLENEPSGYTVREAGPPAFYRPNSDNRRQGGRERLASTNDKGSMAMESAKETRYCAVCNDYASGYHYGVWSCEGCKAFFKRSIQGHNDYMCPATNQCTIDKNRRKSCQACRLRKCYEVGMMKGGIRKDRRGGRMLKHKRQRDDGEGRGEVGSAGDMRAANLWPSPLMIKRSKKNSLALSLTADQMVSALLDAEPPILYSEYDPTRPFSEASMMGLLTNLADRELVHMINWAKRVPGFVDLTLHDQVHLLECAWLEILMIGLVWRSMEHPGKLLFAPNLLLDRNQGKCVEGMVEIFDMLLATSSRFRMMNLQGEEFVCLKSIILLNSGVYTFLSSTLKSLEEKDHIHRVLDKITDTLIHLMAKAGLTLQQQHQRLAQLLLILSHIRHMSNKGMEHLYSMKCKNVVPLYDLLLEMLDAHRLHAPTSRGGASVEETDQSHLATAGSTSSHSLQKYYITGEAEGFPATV

Row | Compound | % ERα remaining [%] | IC50 [1] [nM] | DC50 (inflection point of the degradation in response to ligand concentration, read-out: ERα IC50) [nM]
1 | CN(c1ccc(/C=C/C(=O)O)cc1)c1c(-c2ccc(O)cc2)sc2cc(O)ccc12 [Example 30, (E)-3-(4-((6-hydroxy-2-(4-hydroxyphenyl)benzo[b]thiophen-3-yl)(methyl)amino)phenyl)acrylic acid] | 30 |  | 
2 | O=C(/C=C/c1ccc(Oc2c(-c3ccc(O)cc3)sc3cc(O)ccc23)cc1)NCCC(F)(F)F [Example 31, (E)-3-(4-((6-hydroxy-2-(4-hydroxyphenyl)benzo[b]thiophen-3-yl)oxy)phenyl)-N-(3,3,3-trifluoropropyl)acrylamide] | 45 | 1 | 
3 | Cc1cc(F)ccc1-c1sc2cc(O)ccc2c1Oc1ccc(/C=C/C(=O)NO)cc1 [Example 32, (E)-3-(4-((2-(4-fluoro-2-methylphenyl)-6-hydroxybenzo [b]thiophen-3-yl)oxy)phenyl)-N-hydroxyacrylamide] | 25 |  | 17
4 | O=C(/C=C/c1ccc(Oc2c(-c3ccc(F)cc3)sc3cc(O)ccc23)cc1)NCCC(F)(F)F [Example 33, (E)-3-(4-((2-(4-fluorophenyl)-6-hydroxybenzo[b]thiophen-3-yl)oxy)phenyl)-N-(3,3,3-trifluoropropyl)-acrylamide] | 32 | 10 | 
5 | CCOC(=O)/C=C/c1ccc(Oc2c(-c3ccc(O)cc3)sc3cc(O)ccc23)cc1C [Example 34, (E)-ethyl 3-(4-((6-hydroxy-2-(4-hydroxyphenyl)benzo[b]thiophen-3-yl)oxy)-2-methylphenyl)acrylate] | 42 | 112 | 
6 | CCOC(=O)/C=C/c1ccc(Oc2c(-c3ccc(O)cc3)sc3cc(O)ccc23)c(C)c1 [Example 35, (E)-ethyl 3-(4-((6-hydroxy-2-(4-hydroxyphenyl)benzo[b]thiophen-3-yl)oxy)-3-methylphenyl)acrylate] | 33 |  | 
7 | COC(=O)/C=C/c1ccc(Oc2c(-c3ccc(F)cc3)sc3cc(O)ccc23)cc1 [Example 36, (E)-methyl 3-(4-((2-(4-fluorophenyl)-6-hydroxybenzo[b]thiophen-3-yl)oxy)phenyl)-acrylate] | 28 |  | 
8 | COC(=O)/C=C/c1ccc(Oc2c(-c3ccc(O)cc3)sc3c(F)c(O)c(F)cc23)cc1 [Example 37, (E)-methyl 3-(4-((5,7-difluoro-6-hydroxy-2-(4-hydroxyphenyl)-benzo[b]thiophen-3-yl)oxy)phenyl)acrylate] | 38 |  | 
9 | O=C(O)/C=C/c1ccc(Oc2c(-c3ccc(O)cc3)sc3c(F)c(O)c(F)cc23)cc1 [Example 38, (E)-3-(4-((5,7-difluoro-6-hydroxy-2-(4-hydroxyphenyl)benzo[b]thiophen-3-yl)oxy)phenyl)acrylic acid] | 25 | 22 | 
10 | O=C(O)/C=C/c1ccc(Oc2c(-c3ccc(O)cc3)sc3c(F)c(O)ccc23)cc1 [Example 39, (E)-3-(4-((7-fluoro-6-hydroxy-2-(4-hydroxyphenyl)benzo[b]thiophen-3-yl)oxy)phenyl)acrylic acid] | 24 | 70 | 
11 | O=C(O)/C=C/c1ccc(Oc2c(-c3ccc(O)c(F)c3)sc3cc(O)ccc23)cc1 [Example 40, (E)-3-(4-((2-(3-fluoro-4-hydroxyphenyl)-6-hydroxybenzo[b]thiophen-3-yl)oxy)phenyl)acrylic acid] | 23 | 22 | 
12 | Cc1nnc(/C=C/c2ccc(Oc3c(-c4ccc(F)cc4C)sc4cc(O)ccc34)cc2)o1 [Example 46, (E)-2-(4-fluoro-2-methylphenyl)-3-(4-(2-(5-methyl-1,3,4-oxadiazol-2-yl)vinyl)phenoxy)benzo[b]thiophen-6-ol] | 41 | 5 | 
13 | Cc1cc(F)ccc1-c1sc2cc(O)ccc2c1Oc1ccc(/C=C/c2n[nH]c(=O)o2)cc1 [Example 48, (E)-5-(4-((2-(4-fluoro-2-methylphenyl)-6-hydroxybenzo [b]thiophen-3-yl)oxy)styryl)-1,3,4-oxadiazol-2(3H)-one] | 44 |  | 
14 | Cc1nnc(/C=C/c2ccc(Oc3c(-c4ccc(F)cc4C)sc4cc(O)ccc34)cc2)[nH]1 [Example 49, (E)-2-(4-fluoro-2-methylphenyl)-3-(4-(2-(5-methyl-4H-1,2,4-triazol-3-yl)vinyl)phenoxy)benzo[b]thiophen-6-ol] | 28 |  | 
15 | O=c1nc(/C=C/c2ccc(Oc3c(-c4ccc(O)cc4)sc4cc(O)ccc34)cc2)cc(C(F)(F)F)[nH]1 [Example 50, (E)-4-(4-((6-hydroxy-2-(4-hydroxyphenyl)-benzo[b]thiophen-3-yl)oxy)styryl)-6-(trifluoromethyl) pyrimidin-2(1H)-one] | 36 | 22 | 
16 | Cc1cc(F)ccc1-c1sc2cc(O)ccc2c1Oc1ccc(/C=C/c2nnnn2C)cc1 [Example 51, (E)-2-(4-fluoro-2-methylphenyl)-3-(4-(2-(1-methyl-1H-tetrazol-5-yl)vinyl)phenoxy)-benzo[b]thiophen-6-ol] | 41 | 11 | 

Row | Compound | % ERα remaining [%] | IC50 [1] [nM] | DC50 (inflection point of the degradation in response to ligand concentration, read-out: ERα IC50) [nM]
17 | Cn1nnnc1/C=C/c1ccc(Oc2c(-c3ccc(F)cc3)sc3cc(O)ccc23)cc1 [Example 52, (E)-2-(4-fluorophenyl)-3-(4-(2-(1-methyl-1H-tetrazol-5-yl)vinyl)phenoxy)benzo [b]thiophen-6-ol] | 41 | 223 | 
18 | CCCn1nnnc1/C=C/c1ccc(Oc2c(-c3ccc(F)cc3C)sc3cc(O)ccc23)cc1 [Example 53, (E)-2-(4-fluoro-2-methylphenyl)-3-(4-(2-(1-propyl-1H-tetrazol-5-yl)vinyl)phenoxy) benzo[b]thiophen-6-ol] | 43 |  | 
19 | Cn1nnnc1/C=C/c1ccc(Oc2c(-c3ccc(O)cc3)sc3cc(O)ccc23)cc1 [Example 54, (E)-2-(4-hydroxyphenyl)-3-(4-(2-(1-methyl-1H-tetrazol-5-yl)vinyl)phenoxy)benzo[b]thiophen-6-ol] | 39 | 60 | 
20 | Cc1cc(/C=C/C(=O)O)ccc1Oc1c(-c2ccc(O)cc2)sc2cc(O)ccc12 [Example 57, (E)-3-(4-((6-hydroxy-2-(4-hydroxyphenyl)-benzo[b]thiophen-3-yl)oxy)-3-methylphenyl)acrylic acid] | 37 |  | 
21 | O=C(O)/C=C/c1ccc(Oc2c(-c3ccc(OC(F)(F)F)cc3)sc3cc(O)ccc23)cc1 [Example 59, (E)-3-(4-((6-hydroxy-2-(4-(trifluoromethoxy)-phenyl)benzo[b]thiophen-3-yl)oxy)phenyl)-acrylic acid] | 17 | 30 | 
22 | O=C(O)/C=C/c1ccc(Oc2c(-c3ccccc3)sc3cc(O)ccc23)cc1 [Example 60, (E)-3-(4-((6-hydroxy-2-phenylbenzo[b]thiophen-3-yl)oxy)phenyl)-acrylic acid] | 23 | 26 | 
23 | Cc1cc(-c2sc3cc(O)ccc3c2Oc2ccc(/C=C/C(=O)O)cc2)ccc1O [Example 61, (E)-3-(4-((6-hydroxy-2-(4-hydroxy-3-methylphenyl)benzo[b]thiophen-3-yl)oxy)phenyl)acrylic acid] | 26 | 18 | 
24 | C/C(=C\C(=O)O)c1ccc(Oc2c(-c3ccc(O)cc3)sc3cc(O)ccc23)cc1 [Example 62, (E)-3-(4-((6-hydroxy-2-(4-hydroxyphenyl)-benzo[b]thiophen-3-yl)oxy)phenyl)but-2-enoic acid] | 42 |  | 
25 | CNC(=O)/C=C/c1ccc(Oc2c(-c3ccc(C(F)(F)F)cc3)sc3cc(O)ccc23)cc1 [Example 63, (E)-3-(4-((6-hydroxy-2-(4-(trifluoromethyl)-phenyl)benzo[b]thiophen-3-yl)oxy)phenyl)-N-methylacrylamide] | 26 | 24 | 
26 | NC(=O)/C=C/c1ccc(Oc2c(-c3ccc(O)cc3)sc3cc(O)ccc23)cc1 [Example 64, (E)-3-(4-((6-hydroxy-2-(4-hydroxyphenyl)-benzo[b]thiophen-3-yl)oxy)phenyl)acrylamide] | 48 |  | 
27 | O=C(/C=C/c1ccc(Oc2c(-c3ccc(O)cc3)sc3cc(O)ccc23)cc1)NCCO [Example 65, (E)-3-(4-((6-hydroxy-2-(4-hydroxyphenyl)benzo[b]thiophen-3-yl)oxy)phenyl)-N-(2-hydroxyethyl)acrylamide] | 47 |  | 
28 | CNC(=O)/C=C/c1ccc(Oc2c(-c3ccc(O)cc3)sc3cc(O)ccc23)cc1 [Example 66, (E)-3-(4-((6-hydroxy-2-(4-hydroxyphenyl)benzo[b]thiophen-3-yl)oxy)phenyl)-N-methylacrylamide] | 40 | 58 | 
29 | CNC(=O)/C=C/c1ccc(Oc2c(-c3ccc(F)cc3)sc3cc(O)ccc23)cc1 [Example 67, (E)-3-(4-((2-(4-fluorophenyl)-6-hydroxybenzo[b]thiophen-3-yl)oxy)phenyl)-N-methylacrylamide] | 36 | 347 | 
30 | CNC(=O)/C=C/c1ccc(Oc2c(-c3ccc(O)c(C)c3)sc3cc(O)ccc23)cc1 [Example 68, (E)-3-(4-((6-hydroxy-2-(4-hydroxy-3-methylphenyl)benzo[b]thiophen-3-yl)oxy)phenyl)-N-methylacrylamide] | 43 | 161 | 
31 | CCCn1cncc1/C=C/c1ccc(Oc2c(-c3ccc(O)cc3)sc3cc(O)ccc23)cc1 [Example 75, (E)-2-(4-hydroxyphenyl)-3-(4-(2-(1-propyl-1H-imidazol-5-yl)vinyl)phenoxy)benzo [b]thiophen-6-ol] | 41 |  | 
32 | Cc1cc(F)ccc1-c1sc2cc(O)ccc2c1Oc1ccc(/C=C/c2nnc(C3CC3)o2)cc1 [Example 76, (E)-3-(4-(2-(5-cyclopropyl-1,3,4-oxadiazol-2-yl)vinyl)phenoxy)-2-(4-fluoro-2-methylphenyl)benzo[b] thiophen-6-ol] | 42 | 47 | 
